Data reported in patent publication US11103489B2, “Drug for preventing or treating inflammatory bowel disease” (NATIONAL UNIVERSITY CORPORATION OKAYAMA UNIVERSITY, priority 2015, dated 2021).
“Also recorded” adds a separate entry of the source. Blank lines part the entries; values can stand above or below the compound they belong to.

Columns and labels:
Raw264.7 cells = assay: Inhibitory effect on LPS-stimulated NO production (Griess assay); details: LPS 100 ng/mL; for LPS-stimulated NO production: 48 hours; for NO-production inhibitory effect in combination with RU486 (GR antagonist): combined with 1 μM of RU486
DSS colitis model mice [1] = assay: DSS (3% aqueous solution) colitis model mice, drug efficacy and side effects (2); assay type: in vivo, C57BL/6 mice; details: 3% DSS
Method: (§1) 1. Six-week old (body weight: 20 g) male C57BL/6 mice were purchased and acclimated for 5 to 7 days.
(§2) 2. An average weight was mated between groups having 5 to 6 animals.
3. A DSS untreated group (normal) had free access to mineral water filtered through a […] membrane filter. […]
(§3) 4. After initiation of free access to DSS-containing water, a body weight was measured every day and then an evaluated drug was orally administered.
(§4) 6. An orally administered solution was prepared by dissolving the drug in ethanol to a final concentration of 1% and suspending the solution in a 0.5% solution of carboxymethylcellulose (CMC).
(§5) 7. The drug was administered for 11 days, and the next day, a mouse was euthanized followed by blood collection and dissection. A large intestine and a spleen were isolated. A large intestine length was measured and photographs of the large intestine and the spleen were taken. A section of the large intestine was taken and photographed.

DSS colitis model mice [2] = assay: DSS (2% aqueous solution) colitis model mice, drug efficacy and side effects (1); assay type: in vivo, C57BL/6 mice
Method: as §1, §2
(§6) 3. A DSS untreated group (normal) had free access to mineral water filtered through a […] membrane filter. A DSS […] group (vehicle and drug group) had free access to mineral water containing 2% dextran sulfate sodium (DSS) filtered through a […] membrane filter for 6 days and then mineral water filtered through a 0.22 μM membrane filter.
as §3, §4, §5
8. The collected blood was heparinized to give plasma, which was used for determining a blood triglyceride (TG).

DSS colitis model mice [3] = assay: DSS (2% aqueous solution) colitis model mice, drug efficacy and side effects (3); assay type: in vivo, C57BL/6 mice; details: 2% DSS
Method: as §1, §2, §6, §3, §4, §5

[4] = Measurement of a drug concentration in feces; assay type: in vivo, ICR mice; details: for concentration in feces: oral gavage
Method: 1. For each treated group, four six-week old male ICR mice (body weight: 35 to 40 g) were used.
2. An orally-administered solution was prepared by dissolving it in ethanol to a final concentration of 1% and suspending the solution in a 0.5% solution of carboxymethylcellulose (CMC).
3. Each mouse was housed in a cage and had free access to feed and water.
4. After a body weight was measured at 10 a.m., the animal was gavaged with an evaluated drug via a feeding tube.
5. From the next day, feces in each cage were collected for 3 days.
6. Hundred milligrams of the feces were dried under vacuum at 40° C. and pulverized in a mortar. Then, 1.5 mL of HPLC-grade methanol was added, followed by ultrasonic extraction for 20 min.
7. After the extraction, the mixture was centrifuged at 4° C. and 1,500×g for 20 min.
8. After the centrifugation, 1 mL of the supernatant was filtered through a syringe filter and poured into a 2 mL Eppendorf tube.
9. […] The concentration was converted to a concentration per 100 mg of feces.
10. Since extraction with 1.5 mL of methanol was conducted assuming that 100 mg of the above feces corresponded to 100 μL, a concentration in feces was estimated by multiplying the concentration in methanol determined by LC/MS by […].

[5] = cited from earlier work
[6] = Measurement of a drug concentration in a large intestine; assay type: in vivo, ICR mice; details: the next day after 3 day administration
Method: 1. The next day of the last medication (day 3 of medication), a mouse used in Example 2 was euthanized with ether and then a large intestine was excised.
2. Faces were removed from the removed large intestine and the inside of the large intestine was washed with PBS. Excess water was removed with Kimwipes.
3. About 200 mg of the above large intestine was precisely placed in a 2 mL Eppendorf tube.
4. To the Eppendorf tube was added 800 μL of HPLC-grade methanol, and the mixture was pulverized by a homogenizer. Methanol was further added such that the total volume of methanol added became five times as much as the volume of the large intestine.
5. The mixture was ultrasonic-extracted for 20 min.
6. After the extraction, the extract was centrifuged at 4° C. and 1,500×g for 20 min.
7. After the centrifugation, about 1 mL of the supernatant was filtered through a syringe filter and poured into a 2 mL Eppendorf tube.
9. Since extraction with […] of methanol was conducted assuming that 200 mg of the above […] corresponded to 200 μL, a concentration in a large intestine was estimated by multiplying the concentration in methanol determined by LC/MS by 5.

[7] = Measurement of a blood concentration of a drug after oral administration; assay type: in vivo, ICR mice; details: single oral dose of 3 mg/kg; at any time (0, 1, 3, 6 h); plasma
Method: 1. Six-week old male ICR mice (body weight: 15 to 25 g) were fasted from the evening of the day before the experiment, and a compound solution prepared in [2] below at a volume of 10 mL/kg was orally administered via a stomach tube. At 0, 1, 3, and 6 hours after the administration, the animals were anesthetized with ether, and incised the abdomen to collect blood from a large vein. The blood was transferred into a heparinized tube and centrifuged at 5000 rpm for 5 minutes, to collect 100 μL of plasma. Each treated group had five mice.
2. A dose of the compound was 30, 3, 0.3 mg/kg per an animal. A dosage form of the compound was prepared by dissolving it in ethanol to a final concentration of 1% and suspending the solution in a 0.5% solution of carboxymethylcellulose (CMC).
3. To 100 μL of the plasma were added 100 μL of an ammonium acetate buffer (prepared by adding acetic acid to 5 mM of ammonium acetate and adjusting a pH to 5), and then 1 mL of ethyl acetate. The mixture was vortexed for 30 min, allowed to stand at room temperature for 10 min and centrifuged for 30 sec to remove 800 μL of a supernatant, which was then concentrated by a centrifugal evaporator. The residue was stored at −20° C.
4. […] Then, for 20 μL of the sample, a compound concentration was determined by HPLC or LCMS. […]

RXR = details: cited from earlier work
[8] = 2% DSS, oral 100 mg/kg/day, 11 days
[9] = 2% DSS, repeated oral dosing at 10 mg/kg/day, in comparison with bexarotene

Structure (SMILES): C[C@]12C=CC(=O)C=C1CC[C@@H]1[C@@H]2[C@@H](O)C[C@@]2(C)[C@H]1CC[C@]2(O)C(=O)CO [Prednisolone, prednisolone, reference compound]
LPS-stimulated NO production (Raw264.7 cells): inhibited
NO-production inhibitory effect in combination with RU486 (GR antagonist) (Raw264.7 cells): inhibited by combination use of RU486
anti-inflammatory effect (DSS colitis model mice [1]; oral administration at 10 mg/kg/day): did not exhibit anti-inflammatory effect

Structure (SMILES): Nc1ccc(O)c(C(=O)O)c1 [5-Aminosalicylic acid, 5-aminosalicylic acid, reference compound]
improvement in body weight reduction (DSS colitis model mice [2]; [8]): did not contribute to improvement in body weight reduction
recovery of a large intestine length (DSS colitis model mice [2]; [8]): did not contribute

Structure (SMILES): O=C(O)c1cc(/N=N/c2ccc(S(=O)(=O)Nc3ccccn3)cc2)ccc1O [SASP, salazosulfapyridine, reference compound]
weight change, improvement effect compared with a vehicle (DSS colitis model mice [3]; oral 200 mg×2/kg/day): did not exhibit improvement effect

concentration in feces ([4]; Day 1): 40 ± 6 µM
concentration in feces ([4]; Day 2): 33 ± 4 µM
concentration in feces ([4]; Day 3): 22 ± 1 µM
concentration in a large intestine [6]: 0.0027 ± 0.0003 µM
blood concentration [7]: < 0.1 µM
Structure (SMILES): CCN(c1ccc(C(C)C)c(OCC(C)C)c1)c1ccc(C(=O)O)cn1 [NEt-3IB]
LPS-stimulated NO production (Raw264.7 cells): inhibited
NO-production inhibitory effect in combination with RU486 (GR antagonist) (Raw264.7 cells): not inhibited
increase in the concentration in feces by repeated administration ([4]; 3 day oral administration): increase in the concentration by repeated administration was not found
improvement in body weight reduction (DSS colitis model mice [2]; [9]): prominent improvement in body weight reduction
recovery of a large intestine length (DSS colitis model mice [2]; [9]): recovery of a large intestine length
blood triglyceride (TG) (DSS colitis model mice [2]; 2% DSS, repeated oral dosing, compared with bexarotene): inhibited increase in blood TG; also recorded: increase in a blood triglyceride by the agent was reduced
anti-inflammatory effect on DSS enteritis (DSS colitis model mice [2]; repetitive oral administration, 1 mg/kg/day): prominent anti-inflammatory effect
absorption in oral administration ([5]; reported): poorly absorbed
enlarged liver or increase in triglyceride ([5]; reportedly, in contrast to a conventional RXR full agonist): does not cause an enlarged liver or increase in triglyceride
inhibition of body weight reduction (DSS colitis model mice [1]; oral 10 mg/kg/day): prominent inhibition of body weight reduction
recovery of a large intestine length (DSS colitis model mice [1]; oral 10 mg/kg/day): recovery of a large intestine length
weight change (DSS colitis model mice [3]; oral 10 mg/kg/day): inhibited body weight reduction

Structure (SMILES): CCN(c1ccc(C(C)C)c(OCCOC)c1)c1ccc(C(=O)O)cn1 [NEt-3ME]
RXR receptor activation potency relative to NEt-3IB (RXR): less receptor activation potency than NEt-3IB
effect relative to NEt-3IB (DSS colitis model mice [3]; at a dose three times as much as NEt-3IB (30 vs 10 mg/kg/day)): comparable to NEt-3IB
weight change (DSS colitis model mice [3]; oral 30 mg/kg/day): inhibited body weight reduction
